# In PubChem BioAssay (NCI):
#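 Cells were grown in 96-well plates and exposed to each compound for 48 hours at five concentrations; endpoints were interpolated linearly between bracketing concentrations, or set to the highest concentration if not reached. GI50 is the concentration that inhibits growth by half. At the TGI there is no net growth.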 Peptide text beside a SMILES is read from it.
# Columns and labels:
# Assay in all cases: NCI-60 cell line screen, 48 h
# CCRF-CEM leukemia = tested on: CCRF-CEM leukemia
# SK-MEL-2 melanoma = tested on: SK-MEL-2 melanoma
# SN12C renal = tested on: SN12C renal
# HS 578T breast = tested on: HS 578T breast
# UACC-257 melanoma = tested on: UACC-257 melanoma
# SNB-19 CNS = tested on: SNB-19 CNS
# SW-620 colon = tested on: SW-620 colon
# KM12 colon = tested on: KM12 colon
# HCC-2998 colon = tested on: HCC-2998 colon
# SF-539 CNS = tested on: SF-539 CNS
# HCT-15 colon = tested on: HCT-15 colon
# LOX IMVI melanoma = tested on: LOX IMVI melanoma
# RXF 393 renal = tested on: RXF 393 renal
# NCI/ADR-RES ovarian = tested on: NCI/ADR-RES ovarian
# NCI-H23 lung = tested on: NCI-H23 lung
# UACC-62 melanoma = tested on: UACC-62 melanoma
# SK-MEL-28 melanoma = tested on: SK-MEL-28 melanoma
# HOP-92 NSCLC = tested on: HOP-92 NSCLC
# SNB-75 CNS = tested on: SNB-75 CNS
# NCI-H522 lung = tested on: NCI-H522 lung
# A498 renal = tested on: A498 renal
# EKVX NSCLC = tested on: EKVX NSCLC
# IGROV1 ovarian = tested on: IGROV1 ovarian
# DU-145 prostate = tested on: DU-145 prostate
# SK-OV-3 ovarian = tested on: SK-OV-3 ovarian
# TK-10 renal = tested on: TK-10 renal
# CAKI-1 renal = tested on: CAKI-1 renal
# MDA-MB-435 = tested on: MDA-MB-435
# SF-295 CNS = tested on: SF-295 CNS
# OVCAR-8 ovarian = tested on: OVCAR-8 ovarian
# U251 CNS = tested on: U251 CNS
# MALME-3M melanoma = tested on: MALME-3M melanoma
# OVCAR-3 ovarian = tested on: OVCAR-3 ovarian
# UO-31 renal = tested on: UO-31 renal
# M14 melanoma = tested on: M14 melanoma
# T-47D breast = tested on: T-47D breast
# ACHN renal = tested on: ACHN renal
# RPMI-8226 leukemia = tested on: RPMI-8226 leukemia
# SF-268 CNS = tested on: SF-268 CNS
# OVCAR-5 ovarian = tested on: OVCAR-5 ovarian
# COLO 205 colon = tested on: COLO 205 colon
# OVCAR-4 ovarian = tested on: OVCAR-4 ovarian
# NCI-H226 lung = tested on: NCI-H226 lung
# MOLT-4 leukemia = tested on: MOLT-4 leukemia
# PC-3 prostate = tested on: PC-3 prostate
# A549 NSCLC = tested on: A549 NSCLC
# SK-MEL-5 melanoma = tested on: SK-MEL-5 melanoma
# HCT-116 colon = tested on: HCT-116 colon
# HT29 colon = tested on: HT29 colon
# BT-549 breast = tested on: BT-549 breast
# K-562 leukemia = tested on: K-562 leukemia
# MCF7 breast = tested on: MCF7 breast
# 786-0 renal = tested on: 786-0 renal
# HOP-62 NSCLC = tested on: HOP-62 NSCLC
# NCI-H460 lung = tested on: NCI-H460 lung
# SR leukemia = tested on: SR leukemia
# HL-60(TB) leukemia = tested on: HL-60(TB) leukemia
# MDA-MB-231 breast = tested on: MDA-MB-231 breast
smiles,measurement,setting,value
CC(=O)NC(C(=O)NC(C)C(=O)N1CCCC1C(=O)O)C(C)C (stereo not drawn) (Ac-Val-Ala-Pro-OH; configuration not given here),GI50,CCRF-CEM leukemia,89.9 µg/mL
same,GI50,SK-MEL-2 melanoma,83.8 µg/mL
same,GI50,SN12C renal,46.6 µg/mL
same,GI50,HS 578T breast,65.6 µg/mL
O=C(CN1C(=O)S/C(=C\C(Cl)=C\c2ccccc2)C1=O)NCCCn1ccnc1,GI50,UACC-257 melanoma,2.63 µM
same,TGI,UACC-257 melanoma,10.2 µM
same,GI50,SNB-19 CNS,3.14 µM
same,TGI,SNB-19 CNS,13 µM
same,GI50,SW-620 colon,1.72 µM
same,TGI,SW-620 colon,3.67 µM
same,GI50,KM12 colon,1.95 µM
same,TGI,KM12 colon,4.22 µM
same,GI50,HCC-2998 colon,1.88 µM
same,TGI,HCC-2998 colon,3.57 µM
same,GI50,SF-539 CNS,2.08 µM
same,TGI,SF-539 CNS,5.27 µM
same,GI50,HCT-15 colon,1.95 µM
same,TGI,HCT-15 colon,7 µM
same,GI50,LOX IMVI melanoma,1.37 µM
same,TGI,LOX IMVI melanoma,2.75 µM
same,GI50,RXF 393 renal,1.83 µM
same,TGI,RXF 393 renal,3.68 µM
same,GI50,NCI/ADR-RES ovarian,4.13 µM
same,TGI,NCI/ADR-RES ovarian,> 100 µM
same,GI50,NCI-H23 lung,2.26 µM
same,TGI,NCI-H23 lung,6.88 µM
same,GI50,UACC-62 melanoma,1.67 µM
same,TGI,UACC-62 melanoma,3.73 µM
same,GI50,SK-MEL-2 melanoma,2.8 µM
same,TGI,SK-MEL-2 melanoma,9.55 µM
same,GI50,SK-MEL-28 melanoma,1.85 µM
same,TGI,SK-MEL-28 melanoma,3.72 µM
same,GI50,HOP-92 NSCLC,1.76 µM
same,TGI,HOP-92 NSCLC,4.46 µM
same,GI50,SNB-75 CNS,1.22 µM
same,TGI,SNB-75 CNS,12.9 µM
same,GI50,NCI-H522 lung,2.02 µM
same,TGI,NCI-H522 lung,5.15 µM
same,GI50,SN12C renal,2.26 µM
same,TGI,SN12C renal,7.49 µM
same,GI50,A498 renal,1.28 µM
same,TGI,A498 renal,5.57 µM
same,GI50,EKVX NSCLC,2.43 µM
same,TGI,EKVX NSCLC,6.69 µM
same,GI50,IGROV1 ovarian,1.82 µM
same,TGI,IGROV1 ovarian,4.23 µM
same,GI50,DU-145 prostate,2.22 µM
same,TGI,DU-145 prostate,5.64 µM
same,GI50,SK-OV-3 ovarian,5.23 µM
same,TGI,SK-OV-3 ovarian,> 100 µM
same,GI50,TK-10 renal,2.3 µM
same,TGI,TK-10 renal,4.53 µM
same,GI50,CAKI-1 renal,1.91 µM
same,TGI,CAKI-1 renal,4.16 µM
same,GI50,MDA-MB-435,1.99 µM
same,TGI,MDA-MB-435,4.19 µM
same,GI50,SF-295 CNS,10 µM
same,TGI,SF-295 CNS,24.4 µM
same,GI50,OVCAR-8 ovarian,2.85 µM
same,TGI,OVCAR-8 ovarian,> 100 µM
same,GI50,U251 CNS,2.54 µM
same,TGI,U251 CNS,8.01 µM
same,GI50,MALME-3M melanoma,1.82 µM
same,TGI,MALME-3M melanoma,4.9 µM
same,GI50,OVCAR-3 ovarian,1.76 µM
same,TGI,OVCAR-3 ovarian,3.25 µM
same,GI50,UO-31 renal,1.61 µM
same,TGI,UO-31 renal,3.49 µM
same,GI50,M14 melanoma,1.66 µM
same,TGI,M14 melanoma,3.59 µM
same,GI50,T-47D breast,2.8 µM
same,TGI,T-47D breast,17.2 µM
same,GI50,ACHN renal,1.99 µM
same,TGI,ACHN renal,5.22 µM
same,GI50,RPMI-8226 leukemia,1.78 µM
same,TGI,RPMI-8226 leukemia,6.74 µM
same,GI50,SF-268 CNS,2.52 µM
same,TGI,SF-268 CNS,7.65 µM
same,GI50,OVCAR-5 ovarian,2.4 µM
same,TGI,OVCAR-5 ovarian,6.47 µM
same,GI50,COLO 205 colon,2.1 µM
same,TGI,COLO 205 colon,4.82 µM
same,GI50,OVCAR-4 ovarian,1.86 µM
same,TGI,OVCAR-4 ovarian,4.39 µM
same,GI50,NCI-H226 lung,2.16 µM
same,TGI,NCI-H226 lung,5.19 µM
same,GI50,MOLT-4 leukemia,2.1 µM
same,TGI,MOLT-4 leukemia,7.57 µM
same,GI50,PC-3 prostate,2.03 µM
same,TGI,PC-3 prostate,5.74 µM
same,GI50,A549 NSCLC,3.3 µM
same,TGI,A549 NSCLC,23.2 µM
same,GI50,HS 578T breast,2.4 µM
same,TGI,HS 578T breast,7.35 µM
same,GI50,SK-MEL-5 melanoma,1.68 µM
same,TGI,SK-MEL-5 melanoma,3.06 µM
same,GI50,HCT-116 colon,1.53 µM
same,TGI,HCT-116 colon,3.14 µM
same,GI50,HT29 colon,2.18 µM
same,TGI,HT29 colon,6.07 µM
same,GI50,BT-549 breast,2.12 µM
same,TGI,BT-549 breast,4.83 µM
same,GI50,K-562 leukemia,2.17 µM
same,TGI,K-562 leukemia,> 100 µM
same,GI50,MCF7 breast,1.36 µM
same,TGI,MCF7 breast,6.11 µM
same,GI50,786-0 renal,1.98 µM
same,TGI,786-0 renal,3.91 µM
same,GI50,HOP-62 NSCLC,3.45 µM
same,TGI,HOP-62 NSCLC,22.5 µM
same,GI50,NCI-H460 lung,2.21 µM
same,TGI,NCI-H460 lung,6.44 µM
CC/C(=C\c1ccc(Cl)c(Cl)c1)[N+](=O)[O-],TGI,UACC-257 melanoma,3.58 µM
same,TGI,SNB-19 CNS,5.7 µM
same,TGI,SW-620 colon,> 100 µM
same,TGI,KM12 colon,10.4 µM
same,TGI,HCC-2998 colon,3.59 µM
same,TGI,NCI-H23 lung,5.21 µM
same,TGI,UACC-62 melanoma,3.89 µM
same,TGI,SK-MEL-2 melanoma,4.85 µM
same,TGI,SNB-75 CNS,> 100 µM
same,TGI,NCI-H522 lung,3.49 µM
same,TGI,A498 renal,24.1 µM
same,TGI,EKVX NSCLC,7.88 µM
same,TGI,IGROV1 ovarian,3.31 µM
same,TGI,DU-145 prostate,5.39 µM
same,TGI,TK-10 renal,4.04 µM
same,TGI,MDA-MB-435,3.1 µM
same,TGI,SF-295 CNS,5.36 µM
same,TGI,OVCAR-8 ovarian,3.4 µM
same,TGI,SR leukemia,3.61 µM
same,TGI,MALME-3M melanoma,4.11 µM
same,TGI,HL-60(TB) leukemia,5.67 µM
same,TGI,MDA-MB-231 breast,5.4 µM
same,TGI,SF-268 CNS,4.57 µM
same,TGI,OVCAR-4 ovarian,7.57 µM
same,TGI,MOLT-4 leukemia,2.01 µM
same,TGI,HS 578T breast,> 100 µM
same,TGI,SK-MEL-5 melanoma,3.92 µM
same,TGI,HCT-116 colon,> 100 µM
same,TGI,HT29 colon,> 100 µM
same,TGI,K-562 leukemia,47.4 µM
same,TGI,MCF7 breast,3.48 µM
